Measured values taken from article PMC9884426, “A phase 1 clinical trial of the repurposable acetyllysine mimetic, n-methyl-2-pyrrolidone (NMP), in relapsed or refractory multiple myeloma” (Clinical Epigenetics, 2023).
Read-outs that look alike come from different tables or passages of the source.

Columns and labels:
[1] = design: method as in PMID 9029058; settings: human, after a single 100 mg oral dose of NMP; cited from earlier work
[2] = Plasma pharmacokinetics of oral NMP by LCMSMS; assay type: in vivo, human; settings: for AUC / Cmax / half-life / Tmax: human, po
Method: Blood samples were taken from patients before NMP and at one, two, four, eight and 24 h post dose. Plasma samples (20 μl) were prepared by adding five volumes of methanol containing deuterated internal standard. The samples were vortexed then centrifuged, and the supernatant was transferred to a vial and injected onto the LCMSMS. The LCMSMS system consisted of a Shimadzu UHPLC with a SCIEX 6500QTrap, a KinetexC18 (3 × 50 mm, 2.6 μm) column and using a gradient of 0.1% formic acid and acetonitrile. The initial conditions were 0.5 ml/min and 2% acetonitrile; this was held for 1 min then increased to 20% acetonitrile at 2 min then increased to 70% acetonitrile and held for 0.5 min. Equilibration time was 0.5 min. MRMs for NMP were 100 → 58, 100 → 69, 100 → 41 and for the internal standard d9NMP 109 → 62, […]. PK analysis was performed using Pkanalix (version 2021R1. Antony, France: Lixoft SAS, 2021).

[3] = all dose levels 25-800 mg oral, N = 28 profiles, plasma

CN1CCCC1=O [NMP, N-methyl-2-pyrrolidone]
amount found in urine [1]: 0.8%
Maximum plasma concentration (Cmax), highest achieved ([2]; 800 mg dose, oral, one patient): 16.7 mg/L
CL/F, Overall Average [2, 3]: 19.25 L⋅h⁻¹
Half-life, Overall Average [2, 3]: ~ 1.5 h
V/F, Overall Average [2, 3]: 39.49 L
Tmax, Overall Average ([2]; all dose levels 25-800 mg oral, N = 29 profiles, plasma): 33 min
single NMP dose predicted to be required to attain BET-inhibitory peak plasma concentrations ([2]; e.g. > 1 mM peak plasma, based on NMP's PK): more than 4.5 g
AUC ([2]; plasma, 25 mg, oral 25 mg, patient RMH-01 occasion 6, plasma, read-out: AUC): 1500 ng·h/mL
Cmax ([2]; plasma, 25 mg, oral 25 mg, patient RMH-01 occasion 6, plasma, read-out: Cmax): 930 ng/mL
half-life ([2]; plasma, 25 mg, oral 25 mg, patient RMH-01 occasion 6, plasma, read-out: Half-life (converted)): 52.2 min
Tmax ([2]; plasma, 25 mg, oral 25 mg, patient RMH-01 occasion 6, plasma, read-out: Tmax): 30 min
AUC ([2]; plasma, 50 mg, oral 50 mg, average of N = 5 profiles, plasma, read-out: AUC, Average): 2170 ng·h/mL
Cmax ([2]; plasma, 50 mg, oral 50 mg, average of N = 5 profiles, plasma, read-out: Cmax, Average): 1260 ng/mL
half-life ([2]; plasma, 50 mg, oral 50 mg, average of N = 5 profiles, plasma, read-out: Half-life, Average (converted)): 64.8 min
Tmax ([2]; plasma, 50 mg, oral 50 mg, average of N = 5 profiles, plasma, read-out: Tmax, Average): 30 min
AUC ([2]; plasma, 50 mg, oral 50 mg, individual profiles, patient RMH-01 occasions 1-5, plasma, read-out: AUC): 2830 ng·h/mL
Cmax ([2]; plasma, 50 mg, oral 50 mg, individual profiles, patient RMH-01 occasions 1-5, plasma, read-out: Cmax): 1720 ng/mL
half-life ([2]; plasma, 50 mg, oral 50 mg, individual profiles, patient RMH-01 occasions 1-5, plasma, read-out: Half-life (converted)): 72.6 min
Tmax ([2]; plasma, 50 mg, oral 50 mg, individual profiles, patient RMH-01 occasions 1-5, plasma, read-out: Tmax): 30 min
AUC ([2]; plasma, 100 mg, oral 100 mg, average of N = 5 profiles, plasma, read-out: AUC, Average): 7130 ng·h/mL
Cmax ([2]; plasma, 100 mg, oral 100 mg, average of N = 5 profiles, plasma, read-out: Cmax, Average): 2570 ng/mL
half-life ([2]; plasma, 100 mg, oral 100 mg, average of N = 5 profiles, plasma, read-out: Half-life, Average (converted)): 110 min
Tmax ([2]; plasma, 100 mg, oral 100 mg, average of N = 5 profiles, plasma, read-out: Tmax, Average): 30 min
AUC ([2]; plasma, 100 mg, oral 100 mg, individual profiles, patient RMH-02 occasions 1-5, plasma, read-out: AUC): 6970 ng·h/mL
Cmax ([2]; plasma, 100 mg, oral 100 mg, individual profiles, patient RMH-02 occasions 1-5, plasma, read-out: Cmax): 2730 ng/mL
half-life ([2]; plasma, 100 mg, oral 100 mg, individual profiles, patient RMH-02 occasions 1-5, plasma, read-out: Half-life (converted)): 101 min
Tmax ([2]; plasma, 100 mg, oral 100 mg, individual profiles, patient RMH-02 occasions 1-5, plasma, read-out: Tmax): 30 min
half-life ([2]; plasma, 200 mg, oral 200 mg, average of N = 8 profiles, plasma, read-out: Half-life, Average (converted)): 88.2 min
AUC ([2]; plasma, 200 mg, oral 200 mg, average of N = 9 profiles, plasma, read-out: AUC, Average): 9510 ng·h/mL
Cmax ([2]; plasma, 200 mg, oral 200 mg, average of N = 9 profiles, plasma, read-out: Cmax, Average): 4050 ng/mL
Tmax ([2]; plasma, 200 mg, oral 200 mg, average of N = 9 profiles, plasma, read-out: Tmax, Average): 33.6 min
half-life ([2]; plasma, 200 mg, oral 200 mg, individual profiles (PMC-03, MON-04, MON-06, MON-07, PMC-08), plasma, read-out: Half-life (converted)): 84 min
Tmax ([2]; plasma, 200 mg, oral 200 mg, individual profiles (PMC-03, MON-04, PMC-05, MON-06, MON-07, PMC-08), plasma, read-out: Tmax): 30 min
AUC ([2]; plasma, 300 mg, oral 300 mg, average of N = 3 profiles, plasma, read-out: AUC, Average): 22200 ng·h/mL
Cmax ([2]; plasma, 300 mg, oral 300 mg, average of N = 3 profiles, plasma, read-out: Cmax, Average): 8060 ng/mL
half-life ([2]; plasma, 300 mg, oral 300 mg, average of N = 3 profiles, plasma, read-out: Half-life, Average (converted)): 96 min
Tmax ([2]; plasma, 300 mg, oral 300 mg, average of N = 3 profiles, plasma, read-out: Tmax, Average): 40.2 min
Cmax ([2]; plasma, 300 mg, oral 300 mg, individual profiles (PMC-09, MON-10, MON-11), plasma, read-out: Cmax): 10500 ng/mL
half-life ([2]; plasma, 300 mg, oral 300 mg, individual profiles (PMC-09, MON-10, MON-11), plasma, read-out: Half-life (converted)): 99.6 min
Tmax ([2]; plasma, 300 mg, oral 300 mg, individual profiles (PMC-09, MON-10, MON-11), plasma, read-out: Tmax): 30 min
AUC ([2]; plasma, 400 mg, oral 400 mg, average of N = 2 profiles, plasma, read-out: AUC, Average): 22200 ng·h/mL
Cmax ([2]; plasma, 400 mg, oral 400 mg, average of N = 2 profiles, plasma, read-out: Cmax, Average): 8310 ng/mL
half-life ([2]; plasma, 400 mg, oral 400 mg, average of N = 2 profiles, plasma, read-out: Half-life, Average (converted)): 94.2 min
Tmax ([2]; plasma, 400 mg, oral 400 mg, average of N = 2 profiles, plasma, read-out: Tmax, Average): 30 min
AUC ([2]; plasma, 400 mg, oral 400 mg, individual profiles (MON-11 occasion 2, MON-12), plasma, read-out: AUC): 28500 ng·h/mL
Cmax ([2]; plasma, 400 mg, oral 400 mg, individual profiles (MON-11 occasion 2, MON-12), plasma, read-out: Cmax): 8990 ng/mL
half-life ([2]; plasma, 400 mg, oral 400 mg, individual profiles (MON-11 occasion 2, MON-12), plasma, read-out: Half-life (converted)): 107 min
Tmax ([2]; plasma, 400 mg, oral 400 mg, individual profiles (MON-11 occasion 2, MON-12), plasma, read-out: Tmax): 30 min
AUC ([2]; plasma, 500 mg, oral 500 mg, patient MON-11 occasion 3, plasma, read-out: AUC): 40600 ng·h/mL
Cmax ([2]; plasma, 500 mg, oral 500 mg, patient MON-11 occasion 3, plasma, read-out: Cmax): 12700 ng/mL
half-life ([2]; plasma, 500 mg, oral 500 mg, patient MON-11 occasion 3, plasma, read-out: Half-life (converted)): 119 min
Tmax ([2]; plasma, 500 mg, oral 500 mg, patient MON-11 occasion 3, plasma, read-out: Tmax): 30 min
AUC ([2]; plasma, 600 mg, oral 600 mg, patient MON-11 occasion 4, plasma, read-out: AUC): 56700 ng·h/mL
Cmax ([2]; plasma, 600 mg, oral 600 mg, patient MON-11 occasion 4, plasma, read-out: Cmax): 14400 ng/mL
half-life ([2]; plasma, 600 mg, oral 600 mg, patient MON-11 occasion 4, plasma, read-out: Half-life (converted)): 130 min
Tmax ([2]; plasma, 600 mg, oral 600 mg, patient MON-11 occasion 4, plasma, read-out: Tmax): 30 min
